The record followed here is PubChem BioAssay (NCI).

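Method: 48-hour compound exposure of cells in 96-well plates, five concentrations, linear interpolation of endpoints. Here, GI50 denotes the concentration required for 50% inhibition of growth. Definition used: TGI = concentration required for complete inhibition of growth.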 Some results are limits rather than exact numbers.

Some test systems named below: DLD-1 colon; DMS 114 small cell lung; NCI-H226 lung; OVCAR-4 ovarian; OVCAR-5 ovarian; SK-MEL-5 melanoma; SN12C renal; SW-620 colon; UACC-62 melanoma; BT-549 breast.
Common to all, as to test: growth of human tumour cells (NCI), 48 h

On to `COc1cc(/C=C2/C(=O)N(C(=O)OCC(C)C)C(Cc3cc(OC)c(OC)c(C)c3OC)C(=O)N2Cc2ccccc2)c(OC)c(C)c1OC` (stereo unspecified), for which the TGI with DLD-1 colon is over 100 µM; in the test with DMS 114 small cell lung, over 100 µM; in the test with NCI-H226 lung, 9.7 µM; with OVCAR-4 ovarian, over 100 µM; with OVCAR-5 ovarian it was over 100 µM; in the test on SK-MEL-5 melanoma it was over 100 µM. In addition, the TGI in the test on SN12C renal, in the test on SW-620 colon and with UACC-62 melanoma was over 100 µM each time.
`CCOC(=O)N1CCN(C=S)CC1`: the TGI in the test with DLD-1 colon, in the test with DMS 114 small cell lung, in the test with OVCAR-5 ovarian, with SK-MEL-5 melanoma, with SN12C renal and in the test with SW-620 colon was over 100 µM each time. Moreover, the TGI in the test with UACC-62 melanoma is over 100 µM.
Turning to `CCCCNc1nc(C#N)c(N)s1`, the TGI with DLD-1 colon, in the test with NCI-H226 lung, in the test with OVCAR-4 ovarian, with OVCAR-5 ovarian, in the test with SN12C renal and with SW-620 colon was over 100 µM throughout. Also, the TGI in the test on UACC-62 melanoma was over 100 µM.
In the case of `CN1C(=Nc2ccccc2)SC1=Nc1ccccc1`, the TGI with DLD-1 colon, in the test on DMS 114 small cell lung, with NCI-H226 lung, with OVCAR-4 ovarian, with OVCAR-5 ovarian and in the test on SK-MEL-5 melanoma was over 100 µM each time. The TGI in the test with SW-620 colon and in the test on UACC-62 melanoma was over 100 µM in each case.
For `CCOc1ccc2c(c1)[n+]([O-])c(-c1ccc(Cl)cc1)c(N)[n+]2[O-]`, the TGI in the test with DLD-1 colon, in the test on DMS 114 small cell lung, in the test with NCI-H226 lung, in the test with OVCAR-4 ovarian, in the test with OVCAR-5 ovarian and in the test on SK-MEL-5 melanoma was over 100 µM each time. Further, the TGI in the test on SN12C renal and in the test with SW-620 colon was over 100 µM in each case.
As to `COC(=O)/C(C)=C(/CCC1(C)OCCO1)O[Si](C)(C)C`, the TGI in the test on DLD-1 colon, in the test on DMS 114 small cell lung, in the test with OVCAR-4 ovarian, in the test on OVCAR-5 ovarian, in the test on SK-MEL-5 melanoma and in the test with SN12C renal was over 100 µM throughout. In addition, the TGI with SW-620 colon and in the test with UACC-62 melanoma was over 100 µM throughout.
Take `Cc1ccc2nc(NC(=O)C(=O)C(C#N)c3nc4ccccc4s3)sc2c1` (stereo unspecified): the TGI in the test with DMS 114 small cell lung is 70.1 µM; with NCI-H226 lung it was 89.3 µM; in the test with OVCAR-4 ovarian, over 100 µM; in the test on OVCAR-5 ovarian it was over 100 µM; with SK-MEL-5 melanoma, 45.7 µM; in the test on SN12C renal it was over 100 µM. Moreover, the TGI in the test on SW-620 colon and with UACC-62 melanoma was over 100 µM in each case.
Regarding `O=C(O)C(SC(=S)c1ccc(C(=S)SC(C(=O)O)c2ccccc2)cc1)c1ccccc1` (stereo unspecified), the TGI in the test with DLD-1 colon, in the test on DMS 114 small cell lung, with NCI-H226 lung, in the test on OVCAR-5 ovarian, with SK-MEL-5 melanoma and in the test on SN12C renal was over 100 µM each time. Also, the TGI with SW-620 colon and in the test with UACC-62 melanoma was over 100 µM in each case.
Regarding `Oc1c(C(Nc2cccc3cccnc23)c2ccccc2)ccc2cccnc12` (stereo unspecified), the TGI was 15.6 µM with DMS 114 small cell lung; 9.79 µM with NCI-H226 lung; over 100 µM with OVCAR-4 ovarian; over 100 µM in the test on OVCAR-5 ovarian; over 100 µM with SN12C renal; over 100 µM with SW-620 colon. In the test on UACC-62 melanoma, this compound had a TGI of over 100 µM.
Turning to `COc1ccc(-c2c[nH]c(C(=O)O)c2-c2cc(OC)c(OC)c(OC)c2)cc1`, the GI50 in the test on BT-549 breast was 10.4 µM; in the test on NCI-H226 lung it was 4.59 µM; in the test on OVCAR-4 ovarian, 88.8 µM; in the test with OVCAR-5 ovarian, 9.98 µM; in the test with SK-MEL-5 melanoma, 3.5 µM; in the test with SN12C renal, 7.94 µM. The GI50 with SW-620 colon was 3.94 µM; in the test with UACC-62 melanoma, 4.13 µM. Moreover, the TGI with BT-549 breast, with NCI-H226 lung, in the test with OVCAR-4 ovarian, in the test on OVCAR-5 ovarian, in the test with SK-MEL-5 melanoma and in the test with SN12C renal was over 100 µM each time. Further, the TGI with SW-620 colon and in the test on UACC-62 melanoma was over 100 µM throughout.
For the compound `COC1CC(OS(=O)(=O)c2ccc([N+](=O)[O-])cc2)C(OC(=O)c2ccccc2)C(C)O1` (stereo unspecified), the TGI in the test on DLD-1 colon, with OVCAR-4 ovarian, in the test with OVCAR-5 ovarian, with SK-MEL-5 melanoma, in the test with SN12C renal and in the test on SW-620 colon was over 100 µM in each case. Further, in the test on UACC-62 melanoma, the TGI is over 100 µM.
As to `COc1cc2ccc(/C=C\[N+](=O)[O-])cc2cc1OC`, the TGI in the test with BT-549 breast turned out to be 5.74 µM; in the test with NCI-H226 lung, 76.5 µM; with OVCAR-4 ovarian, 7.56 µM; in the test with OVCAR-5 ovarian, 30.3 µM; with SK-MEL-5 melanoma it was 17.5 µM; with SN12C renal it was 6.3 µM. The figures for the TGI with SW-620 colon and in the test with UACC-62 melanoma were over 24.6 µM and 21.7 µM, respectively.
Turning to `CN(C)CCN1C(=O)c2ccccc2N(C)c2ccccc21`, the GI50 in the test on BT-549 breast, with NCI-H226 lung, in the test with OVCAR-4 ovarian, in the test on OVCAR-5 ovarian, with SK-MEL-5 melanoma and in the test on SN12C renal was over 100 µM each time. The GI50 in the test with SW-620 colon and with UACC-62 melanoma was over 100 µM throughout. Also, the TGI in the test with BT-549 breast, in the test on NCI-H226 lung, in the test with OVCAR-4 ovarian, in the test with OVCAR-5 ovarian, in the test with SK-MEL-5 melanoma and with SN12C renal was over 100 µM each time. Moreover, the TGI in the test with SW-620 colon and in the test with UACC-62 melanoma was over 100 µM each time.
As for `CC(=O)OCC1OC(n2cnc(C(N)=S)c2N)C(OC(C)=O)C1OC(C)=O` (stereo unspecified), the TGI with BT-549 breast, with NCI-H226 lung, in the test on OVCAR-4 ovarian, with OVCAR-5 ovarian, in the test on SK-MEL-5 melanoma and with SN12C renal was over 100 µM throughout. In addition, the TGI in the test on SW-620 colon and in the test on UACC-62 melanoma was over 100 µM throughout.
On to `COc1ccc(-c2nc(-c3nc4ccc(OC)cc4[nH]3)c3ccccn23)cc1`, for which the GI50 in the test with BT-549 breast was 3.2 µM; with NCI-H226 lung, 6.57 µM; in the test with OVCAR-4 ovarian, 4.53 µM; in the test on OVCAR-5 ovarian, 11.4 µM; in the test on SK-MEL-5 melanoma, 1.6 µM; in the test with SN12C renal it was 3.91 µM. Also, the GI50 with SW-620 colon is 4.26 µM; in the test with UACC-62 melanoma it was 4.51 µM. Further, the TGI with BT-549 breast is 8.86 µM; in the test with NCI-H226 lung it was over 100 µM; in the test on OVCAR-4 ovarian it was over 100 µM; with OVCAR-5 ovarian it was over 100 µM; in the test with SK-MEL-5 melanoma, 4.41 µM; with SN12C renal it was over 100 µM. Also, the TGI in the test on SW-620 colon was over 100 µM; with UACC-62 melanoma, 22 µM.
For the compound `COc1ccc2n[se]nc2c1`, the TGI in the test with DLD-1 colon, with DMS 114 small cell lung, in the test on OVCAR-4 ovarian, in the test on OVCAR-5 ovarian, in the test on SK-MEL-5 melanoma and in the test on SN12C renal was over 100 µM throughout. The TGI with SW-620 colon and in the test with UACC-62 melanoma was over 100 µM in each case.
Regarding `COc1cc(C(=O)O[C@H](C(=O)NCCCCCNC(=O)[C@@H](OC(=O)c2cc(OC)cc3c(C)cccc23)[C@]2(C)CO2)[C@]2(C)CO2)c2cccc(C)c2c1`, the GI50 with BT-549 breast was 1.13 µM; in the test with NCI-H226 lung, 0.93 µM; with OVCAR-4 ovarian, 0.877 µM; in the test on OVCAR-5 ovarian, 1.52 µM; in the test on SK-MEL-5 melanoma, 0.166 µM; with SN12C renal, 0.364 µM. Besides, the values for the GI50 in the test on SW-620 colon and in the test with UACC-62 melanoma were under 0.0149 µM and 0.53 µM, respectively. In addition, the TGI in the test on BT-549 breast was 5.8 µM; in the test with NCI-H226 lung, 4.09 µM; with OVCAR-4 ovarian, over 100 µM; in the test on OVCAR-5 ovarian it was 5.61 µM; in the test with SK-MEL-5 melanoma, 0.501 µM; with SN12C renal, 1.15 µM. The TGI in the test with SW-620 colon was over 100 µM; in the test on UACC-62 melanoma, 1.08 µM.
For the compound `COc1ccc(C(=O)c2cc(OC)c(OC)c(OC)c2)cc1OC(=O)CCl`, the GI50 was under 0.0192 µM in the test with BT-549 breast; 11.3 µM in the test on NCI-H226 lung; 0.115 µM in the test with OVCAR-4 ovarian; 3.61 µM in the test with OVCAR-5 ovarian; 0.0338 µM with SK-MEL-5 melanoma; 0.0472 µM in the test on SN12C renal. Further, the GI50 in the test on SW-620 colon was under 0.0208 µM; in the test on UACC-62 melanoma it was 0.565 µM. The TGI in the test with NCI-H226 lung was over 100 µM; in the test with OVCAR-4 ovarian, over 100 µM; in the test with OVCAR-5 ovarian, over 100 µM; with SK-MEL-5 melanoma it was 0.434 µM; in the test with SN12C renal it was over 100 µM; in the test on SW-620 colon, over 100 µM. The same compound had a TGI with UACC-62 melanoma of over 100 µM.
On to `C=C1C(=O)O[C@H]2[C@H]1CC/C(COC(=O)NCc1cn(C)c3ccccc13)=C\CC[C@@]1(C)O[C@@H]21`, for which the GI50 in the test with BT-549 breast was 0.469 µM; in the test with NCI-H226 lung, 4.38 µM; in the test with OVCAR-4 ovarian, 2.38 µM; with OVCAR-5 ovarian, 1.72 µM; in the test with SK-MEL-5 melanoma it was 1.41 µM; in the test with SN12C renal it was 1.21 µM. In addition, the results for the GI50 in the test on SW-620 colon and in the test with UACC-62 melanoma were 0.524 µM and 1.69 µM, respectively. Moreover, the TGI is 1.88 µM in the test with BT-549 breast; 20.9 µM with NCI-H226 lung; 7.92 µM in the test on OVCAR-4 ovarian; 3.96 µM in the test with OVCAR-5 ovarian; 2.74 µM in the test with SK-MEL-5 melanoma; 3.01 µM in the test on SN12C renal. Moreover, the TGI is 1.98 µM in the test on SW-620 colon and 4.33 µM in the test with UACC-62 melanoma.
